The source made the active and inactive calls.
What was measured:
[1] = target: T1, Zinc finger protein mex-5 (Caenorhabditis elegans, UniProt Q9XUB2); assay: MEX-5/TCR-2 RNA interaction inhibitors, dose response, biochemical, C. elegans, fluorescence polarization (AID 1960)
T1 sequence (Q9XUB2 whole entry): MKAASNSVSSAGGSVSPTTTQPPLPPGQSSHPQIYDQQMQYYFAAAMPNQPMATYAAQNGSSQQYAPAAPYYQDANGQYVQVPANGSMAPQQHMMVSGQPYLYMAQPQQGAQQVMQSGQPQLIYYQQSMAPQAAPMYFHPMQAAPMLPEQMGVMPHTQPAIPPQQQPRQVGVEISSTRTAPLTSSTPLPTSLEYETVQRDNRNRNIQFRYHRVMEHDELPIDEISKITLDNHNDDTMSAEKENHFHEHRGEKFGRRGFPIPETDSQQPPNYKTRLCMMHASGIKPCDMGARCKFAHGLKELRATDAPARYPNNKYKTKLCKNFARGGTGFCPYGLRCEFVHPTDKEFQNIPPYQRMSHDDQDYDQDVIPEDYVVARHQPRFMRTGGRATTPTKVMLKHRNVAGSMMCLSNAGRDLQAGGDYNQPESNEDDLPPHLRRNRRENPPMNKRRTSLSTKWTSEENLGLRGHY

[2] = target: Large T antigen (Simian virus 40, UniProt P03070); format: functional, Betapolyomavirus macacae;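 further: Confirmatory-stage PubChem screen for compounds that inhibit SV40 T antigen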
[3] = target: T2, Polyadenylate-binding protein 1 (Homo sapiens, UniProt P11940); assay: PABP1 MLLE–PAM2 binding inhibitor potency, dose response, biochemical, fluorescence polarization, FITC-PAM2 peptide (AID 602259); format: functional; conditions: read-out: IC50_Mean
[4] = target: T3, RNA-binding protein pos-1 (Caenorhabditis elegans, UniProt G5EF15); assay: inhibitors of POS-1/mex-3 RNA binding, dose response, biochemical, fluorescence polarization (AID 1964);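 further: purified POS-1 fused to maltose binding protein made in E. coli; potency of compounds blocking POS-1 binding to fluorescent RNA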
T3 sequence (G5EF15 whole entry): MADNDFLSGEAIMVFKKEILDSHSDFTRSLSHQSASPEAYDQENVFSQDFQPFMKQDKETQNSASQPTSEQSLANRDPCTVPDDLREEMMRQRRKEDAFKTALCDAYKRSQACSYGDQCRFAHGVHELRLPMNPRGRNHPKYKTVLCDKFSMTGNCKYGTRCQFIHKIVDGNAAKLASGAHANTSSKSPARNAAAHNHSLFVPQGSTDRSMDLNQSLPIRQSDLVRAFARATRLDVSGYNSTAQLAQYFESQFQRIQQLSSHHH

[5] = target: T2, Polyadenylate-binding protein 1; assay: PABP1 MLLE–PAM2 interaction inhibitors, dose response, miRNA deadenylation inhibitor project, biochemical, fluorescence polarization, Cy5-PAM2 peptide, secondary (AID 602260); format: functional; conditions: read-out: IC50_Mean
[6] = cells; format: functional
[7] = C. albicans growth with fluconazole, confirmation, fluorescence, retest (AID 2467); format: functional, cell-based
[8] = NIH-3T3 fibroblast cytotoxicity, dose response, cytotoxicity control, cell-based, fluorescence, Alamar Blue, secondary assay (AID 2327); format: functional;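 further: NIH-3T3 mouse fibroblasts cultured with fluconazole at 8 µg/mL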
[9] = tested on: H9c2; assay: cells; format: functional, cell-based; conditions: Rattus norvegicus, H9c2, Myocardium;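 further: confirmatory concentration-response retest of ultra-high-throughput screening hits for modulation of myocardial damage; cell death induced by hydrogen peroxide oxidative stress; compound pretreatment for 60 min then peroxide exposure for 2 h; potency is for protecting the cells against peroxide damage rather than for killing them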
[10] = target: FAD-linked sulfhydryl oxidase ALR (Homo sapiens, UniProt P55789); assay: inhibitors of human ALR sulfhydryl oxidase, dose response, biochemical, H2O2 detection, luminescence, cherry-pick (AID 493248)
[11] = target: Luciferin 4-monooxygenase (Photinus pyralis, UniProt P08659); assay: firefly luciferase enzyme inhibitors, dose response, biochemical, luminescence (AID 1891)
[12] = Luminescence Cell-Based Dose Confirmation HTS to Identify Inhibitors of Platelet Dense Granule Release. [Related pubchem assays: 1663 (Primary HTS), 1678 (Summary of Project)]; format: functional
[13] = growth suppression of beta-catenin-knockout colon cells, dose response, cell-based, HCT116, human colon tumor (AID 1045); format: functional;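 further: HCT116 colon tumor cells with beta catenin knocked out; cells exposed to compound for 60 hours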
[14] = growth suppression of PTEN-null colon cells, dose response, cell-based, HCT116 PTEN knockout (AID 1047); format: functional;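 further: HCT116 colon tumor cells with PTEN knocked out; cells exposed to compound for 60 hours before readout; potency for loss of cell viability measured by luminescence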
[15] = target: T4, Cytochrome P450 1A2 (Homo sapiens, UniProt P05177);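 further: PubChem cytochrome P450 panel assay, CYP1A2 panel member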
T4 sequence (P05177 whole entry): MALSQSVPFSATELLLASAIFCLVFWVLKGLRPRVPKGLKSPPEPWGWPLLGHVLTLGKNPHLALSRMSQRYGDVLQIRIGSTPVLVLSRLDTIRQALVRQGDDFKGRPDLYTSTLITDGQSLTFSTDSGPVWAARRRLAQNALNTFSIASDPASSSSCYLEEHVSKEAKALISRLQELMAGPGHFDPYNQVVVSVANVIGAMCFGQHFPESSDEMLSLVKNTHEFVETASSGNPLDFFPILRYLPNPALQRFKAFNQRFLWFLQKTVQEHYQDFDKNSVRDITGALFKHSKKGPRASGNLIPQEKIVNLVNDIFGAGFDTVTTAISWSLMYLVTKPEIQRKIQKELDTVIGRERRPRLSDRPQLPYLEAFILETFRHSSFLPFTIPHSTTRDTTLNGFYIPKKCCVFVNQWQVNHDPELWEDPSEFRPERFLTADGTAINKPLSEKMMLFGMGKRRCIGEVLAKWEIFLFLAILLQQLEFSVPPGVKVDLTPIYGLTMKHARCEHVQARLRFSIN

[16] = target: T5, Rac GTPase-activating protein 1 (Homo sapiens, UniProt Q9H0H5); assay: MgcRacGAP GTPase-activating activity inhibitors, confirmation, biochemical, ADP Hunter fluorescence, primary and confirmatory (AID 624330); format: functional
T5 sequence (Q9H0H5 whole entry): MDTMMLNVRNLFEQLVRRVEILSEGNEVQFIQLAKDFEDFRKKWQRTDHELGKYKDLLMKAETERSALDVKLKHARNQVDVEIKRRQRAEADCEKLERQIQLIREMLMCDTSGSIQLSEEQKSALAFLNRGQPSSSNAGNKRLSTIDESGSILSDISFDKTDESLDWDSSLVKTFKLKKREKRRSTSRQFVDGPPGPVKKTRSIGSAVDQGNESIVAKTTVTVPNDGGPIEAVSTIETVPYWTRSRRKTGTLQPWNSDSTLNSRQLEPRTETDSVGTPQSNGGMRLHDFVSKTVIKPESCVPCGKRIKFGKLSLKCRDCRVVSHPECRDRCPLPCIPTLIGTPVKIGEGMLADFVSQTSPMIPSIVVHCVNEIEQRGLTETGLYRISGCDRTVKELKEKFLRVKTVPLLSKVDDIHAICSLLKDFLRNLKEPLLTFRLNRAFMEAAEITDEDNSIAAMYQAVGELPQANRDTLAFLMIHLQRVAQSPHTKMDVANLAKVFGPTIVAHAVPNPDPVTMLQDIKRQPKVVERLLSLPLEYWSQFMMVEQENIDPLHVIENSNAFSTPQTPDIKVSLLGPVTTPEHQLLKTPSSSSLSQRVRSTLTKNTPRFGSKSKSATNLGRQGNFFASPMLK

[17] = tested on: Streptococcus; assay: Group A Streptococcus viability loss, dose response, counter-screen for streptokinase expression inhibitor project, luminescence, BacTiterGlo (AID 1915); format: functional, organism-based;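 further: potency for reduction of bacterial viability or growth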
[18] = tested on: Streptococcus sp. 'group A'; assay: growth inhibition of control SK(-) GAS strain, dose response, counter-screen for streptokinase expression inhibitor project, luminescence, kanamycin, BacTiterGlo, confirmation (AID 1900); format: functional, organism-based
[19] = target: T6, Streptokinase A (Streptococcus pyogenes serotype M1, UniProt P10520); assay: S. pyogenes streptokinase expression inhibitors, potency, dose response, plasminogen activation absorbance, OD405 (AID 1914); format: functional, Streptococcus pyogenes M1 GAS;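 further: secreted streptokinase activity via plasminogen activation per viability signal from cell pellet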
T6 sequence (P10520 whole entry): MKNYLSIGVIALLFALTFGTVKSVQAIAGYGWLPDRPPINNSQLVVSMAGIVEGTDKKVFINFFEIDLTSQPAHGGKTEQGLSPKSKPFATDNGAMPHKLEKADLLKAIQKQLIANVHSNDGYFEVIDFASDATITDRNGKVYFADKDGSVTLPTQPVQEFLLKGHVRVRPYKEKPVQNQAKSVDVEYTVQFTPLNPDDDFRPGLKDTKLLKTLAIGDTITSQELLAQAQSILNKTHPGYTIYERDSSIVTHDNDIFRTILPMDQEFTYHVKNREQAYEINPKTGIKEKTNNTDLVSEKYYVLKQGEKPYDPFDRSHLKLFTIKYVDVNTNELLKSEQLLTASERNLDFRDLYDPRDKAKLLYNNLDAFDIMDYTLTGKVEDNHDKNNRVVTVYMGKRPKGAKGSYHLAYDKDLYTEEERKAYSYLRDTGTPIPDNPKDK

Sequence of Large T antigen (P03070 whole entry): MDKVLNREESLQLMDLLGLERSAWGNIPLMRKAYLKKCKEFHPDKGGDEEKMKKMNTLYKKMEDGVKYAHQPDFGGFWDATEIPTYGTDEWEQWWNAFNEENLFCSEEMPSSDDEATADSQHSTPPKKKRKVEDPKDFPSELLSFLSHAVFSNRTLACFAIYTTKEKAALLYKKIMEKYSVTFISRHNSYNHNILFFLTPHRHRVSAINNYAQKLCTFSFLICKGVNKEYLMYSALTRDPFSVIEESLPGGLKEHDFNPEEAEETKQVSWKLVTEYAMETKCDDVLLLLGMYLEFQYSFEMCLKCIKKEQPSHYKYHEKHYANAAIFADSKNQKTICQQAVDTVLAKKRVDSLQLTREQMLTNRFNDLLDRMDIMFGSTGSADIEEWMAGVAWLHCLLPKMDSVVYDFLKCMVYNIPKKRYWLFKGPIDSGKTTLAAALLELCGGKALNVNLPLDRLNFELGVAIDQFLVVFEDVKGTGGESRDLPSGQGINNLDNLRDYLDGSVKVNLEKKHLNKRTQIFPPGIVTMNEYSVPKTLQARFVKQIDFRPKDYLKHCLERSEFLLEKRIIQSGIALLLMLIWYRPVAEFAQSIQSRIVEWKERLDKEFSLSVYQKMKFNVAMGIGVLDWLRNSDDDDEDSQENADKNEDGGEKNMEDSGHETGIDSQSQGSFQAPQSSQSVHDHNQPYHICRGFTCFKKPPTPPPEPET
Sequence of Luciferin 4-monooxygenase (P08659 whole entry): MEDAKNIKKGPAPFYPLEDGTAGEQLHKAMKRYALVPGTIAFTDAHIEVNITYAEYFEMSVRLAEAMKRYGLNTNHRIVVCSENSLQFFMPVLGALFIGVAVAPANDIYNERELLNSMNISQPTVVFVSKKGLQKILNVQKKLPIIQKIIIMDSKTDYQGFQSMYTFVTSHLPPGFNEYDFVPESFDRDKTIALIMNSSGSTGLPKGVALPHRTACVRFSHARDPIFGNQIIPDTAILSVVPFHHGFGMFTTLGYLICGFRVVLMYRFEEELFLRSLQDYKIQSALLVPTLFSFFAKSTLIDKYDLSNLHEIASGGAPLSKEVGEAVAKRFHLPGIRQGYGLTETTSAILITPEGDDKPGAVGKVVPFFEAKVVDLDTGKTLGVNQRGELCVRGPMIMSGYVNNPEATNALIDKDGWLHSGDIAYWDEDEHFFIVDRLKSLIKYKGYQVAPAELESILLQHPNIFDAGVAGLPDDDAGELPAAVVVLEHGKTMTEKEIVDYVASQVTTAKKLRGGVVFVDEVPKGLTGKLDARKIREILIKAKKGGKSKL
Sequence of FAD-linked sulfhydryl oxidase ALR (P55789 whole entry): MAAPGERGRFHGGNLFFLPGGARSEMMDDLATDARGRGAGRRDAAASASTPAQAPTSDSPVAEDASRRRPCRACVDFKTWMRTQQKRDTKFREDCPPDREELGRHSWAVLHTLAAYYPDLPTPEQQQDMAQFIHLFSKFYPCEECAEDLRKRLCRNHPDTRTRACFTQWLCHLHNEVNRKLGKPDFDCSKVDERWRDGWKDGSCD
T2 sequence (P11940 whole entry, the tested form may be a part): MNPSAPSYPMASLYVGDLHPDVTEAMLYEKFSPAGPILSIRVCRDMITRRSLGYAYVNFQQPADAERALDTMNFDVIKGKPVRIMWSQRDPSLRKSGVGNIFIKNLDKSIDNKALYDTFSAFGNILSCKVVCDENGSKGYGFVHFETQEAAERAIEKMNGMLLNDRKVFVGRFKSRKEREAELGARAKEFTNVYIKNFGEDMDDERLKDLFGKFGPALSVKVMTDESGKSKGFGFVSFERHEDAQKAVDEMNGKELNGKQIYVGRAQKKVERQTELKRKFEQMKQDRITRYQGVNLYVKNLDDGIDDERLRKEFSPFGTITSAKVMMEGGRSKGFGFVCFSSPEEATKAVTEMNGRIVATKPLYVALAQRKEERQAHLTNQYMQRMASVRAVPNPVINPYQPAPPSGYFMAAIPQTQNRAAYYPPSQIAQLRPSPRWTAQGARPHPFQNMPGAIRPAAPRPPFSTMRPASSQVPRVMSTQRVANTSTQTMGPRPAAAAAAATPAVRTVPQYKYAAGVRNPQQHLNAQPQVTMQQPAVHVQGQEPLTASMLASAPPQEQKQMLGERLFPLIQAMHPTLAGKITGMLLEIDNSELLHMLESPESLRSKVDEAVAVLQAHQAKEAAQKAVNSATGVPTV

N#CC1=C(N)C2=C(N3CCCCC3)CCCC2C1(C#N)C#N (stereo not drawn)
EC50 [1]: 77.1 µM (active)
IC50 [2]: 9.99 µM (active)
IC50 [3]: > 66 µM (inactive)
EC50 [4]: 89.4 µM (active)
IC50 [5]: > 66 µM (inactive)

CCCNC(=O)NC(=O)COc1ccc(-c2ccc(C#N)cc2)cc1
IC50 [6]: 1.12 µM (active)

COC(=O)Cc1cc(=O)n(-c2nc3ccccc3s2)[nH]1
EC50 [7]: 21.7 µM (active)
EC50 [8]: > 150 µM (inactive)

O=C(COc1ccccc1Cl)NNC(=O)Cn1[nH]c(=O)c2ccccc2c1=O
IC50 [9]: > 79 µM (inactive)

CC(=O)Oc1ccc(-c2cccc(C(=O)N(C)c3ccc(O)cc3)c2)cc1
AC50 [10]: 22.9 µM (active)

CCC(C)SCc1nc2ccccc2[nH]1 (stereo not drawn)
EC50 [11]: > 112 µM (not active)
EC50 [12]: > 112 µM (not active)

CCn1c(SCC(=O)N2CCN(c3ccccc3)CC2)nc2c(c1=O)SC(C)C2 (stereo not drawn)
IC50 [9]: 11.9 µM (active)

Cc1ccc(NC(=O)c2cc(-c3cccs3)nc3ccccc23)nc1
IC50 [9]: > 79 µM (inactive)

COc1ccc2cc(CCl)c(Cl)nc2c1
AC50 [10]: 5.78 µM (active)

COc1ccc(Cl)cc1NC(=O)CN(C)C(=O)CCc1nc(O)c2ccccc2n1
IC50 [9]: > 79 µM (inactive)

CN(C)c1nc(Oc2ccc(/C=N/O)cc2)nc(N(C)C)n1
AC50 [10]: 0.156 µM (active)

COc1cccc(OCC(=O)NNC(=O)C(=O)Nc2cccc(C)c2)c1
IC50 [6]: 20.4 µM (active)

Cc1ccc(-c2nnc(O)c3ccccc23)cc1S(=O)(=O)NC(C)(C)C
IC50 [9]: > 79 µM (inactive)

Cc1cc(C)c2c(c1)cc(C)c1nnc(SCC(=O)Nc3ccccc3N3CCOCC3)n12
EC50 [11]: > 112 µM (not active)
EC50 [12]: > 112 µM (not active)

CC(C)(C)NC(=O)COC(=O)c1c2c(nc3ccccc13)CCC2
IC50 [9]: 6.79 µM (active)

Cc1cc(OCC(=O)Nc2ccncc2)ccc1Br
IC50 [6]: > 50 µM (active)

COc1ccc(NC(=O)c2ccc(-c3ccc([N+](=O)[O-])cc3)o2)cc1OC
IC50 [6]: > 50 µM (active)

O=C(Nc1ccccc1F)c1cnc(O)nc1O
EC50 [11]: > 112 µM (not active)
EC50 [12]: > 112 µM (not active)

O=C(c1ccc(S(=O)(=O)N2CCOCC2)cc1)N1CCN(c2ccc(F)cc2)CC1
EC50 [11]: > 112 µM (not active)
EC50 [12]: 93.8 µM (active)

Cc1ccc(C)c(NC(=O)C(Sc2ncnc3ccccc23)c2ccccc2)c1 (stereo not drawn)
EC50 [13]: 126 µM (active)
IC50 [9]: 29.1 µM (active)
EC50 [14]: 111 µM (active)

O=C(NC(Cc1ccccc1)C(=O)NCc1ccccn1)c1ccco1 (stereo not drawn)
EC50 [7]: > 38 µM (not active)
EC50 [8]: > 150 µM (inactive)

C/C(=N\NC(=O)CCC(=O)Nc1ccc(C)c(C)c1)C1CC1
EC50 [7]: > 38 µM (not active)
EC50 [8]: > 150 µM (inactive)

Cc1ccc(SCC(=O)Nc2ccc3c(c2)C(=O)N(C)C3=O)cc1
EC50 [7]: > 38 µM (not active)
EC50 [8]: > 150 µM (inactive)

CC(=O)Nc1ccc(-n2cc(-c3ccccc3)[nH]c2=S)cc1
AC50 [10]: 6.42 µM (active)

O=C(c1ccco1)N1CCN(C(=S)Nc2ccc(F)c(Cl)c2)CC1
IC50 [2]: > 100 µM (active)

COc1cc(/C(C)=N/NC(=O)CSc2nc3ccccc3[nH]2)ccc1O
IC50 [2]: 22.9 µM (active)

O=C(CCn1c(=O)oc2cc(Cl)ccc21)Nc1ccc(O)cc1
IC50 [2]: 25.2 µM (active)

C/C(CC(=O)Nc1ccc(N(C)C)cc1)=N\NC(=O)c1ccc(Cl)cc1Cl
IC50 [2]: 9.26 µM (active)

O=C(NCc1ccco1)c1ccccc1NS(=O)(=O)c1ccc(Br)s1
EC50 [7]: 2.35 µM (active)
AC50 [15]: 14.1 µM (inconclusive)
EC50 [8]: > 160 µM (inactive)

COc1cc(/C=N/NC(=O)c2cccc([N+](=O)[O-])c2)ccc1O
IC50 [16]: 29 µM (active)
IC50 [2]: 5.73 µM (active)

CC(=O)c1ccc(N2CCN(C(=O)c3cc(-c4cccnc4)nc4ccc(Br)cc34)CC2)cc1
IC50 [9]: > 79 µM (inactive)

Cc1ccc(OCCCCc2c(C)n[nH]c2C)cc1
EC50 [17]: > 150 µM (not active)
EC50 [18]: 16.3 µM (active)
EC50 [19]: > 150 µM (not active)
IC50 [6]: 25.6 µM (active)

Cc1ccccc1C(C(=O)NCc1ccccc1)N(Cc1ccco1)C(=O)c1ccccn1 (stereo not drawn)
IC50 [9]: > 79 µM (inactive)

Nc1ccc(Nc2nc3ccccc3[nH]2)cc1
IC50 [2]: 7.8 µM (active)

COC(=O)CC1SC(=O)NC1=Nc1ccc(O)cc1 (stereo not drawn)
IC50 [16]: 52.9 µM (active)
IC50 [2]: 16.8 µM (active)

Cc1ccc(NC(=O)CO/N=C/c2ccccc2C)c(C)c1
IC50 [6]: 50 µM (active)

COc1ccc(CCN2CC(C(=O)NCCc3ccccc3C(F)(F)F)CCC2=O)cc1 (stereo not drawn)
EC50 [11]: > 112 µM (not active)
EC50 [12]: > 112 µM (not active)

CN(C)c1ccc(N2CC(C)(C)C2=O)cc1
IC50 [2]: 4.39 µM (active)

CC(CCc1ccccc1)NC(=O)CN1CCN(c2ccc(O)cc2)CC1 (stereo not drawn)
EC50 [8]: 36.2 µM (active)

CN1C2CCC1CC(NC(=O)CSc1ccc(Cl)cc1)C2 (stereo not drawn)
EC50 [11]: > 112 µM (not active)
EC50 [12]: > 112 µM (not active)

Reference: ChEMBL document CHEMBL1201862, “PubChem BioAssay data set” (2004)
